Ki data for one molecule are collected here from ChEMBL document CHEMBL5518250, “Targeting KRAS Diversity: Covalent Modulation of G12X and Beyond in Cancer Therapy” (J Med Chem, 2024).

A short description of this assay: Binding affinity to human recombinant His-tagged KRAS G12C/C118S mutant (1 to 169 residues) expressed in Escherichia coli assessed as inhibition constant by fluorescence based analysis.

For the molecule `C=CC(=O)N1CCN(c2nc(=O)n(-c3c(C)ccnc3C(C)C)c3nc(-c4c(O)cccc4F)c(F)cc23)[C@@H](C)C1` [SOTORASIB], the Ki turned out to be 86 µM.
